Reference: patent US20220280511A1, “CDK4/6 INHIBITORS FOR THE TREATMENT OF PSORIASIS” (EBERHARD KARLS UNIVERSITAET TUEBINGEN MEDIZINISCHE FAKULTAET, priority 2019, published 2022)

Columns and labels:
[1] = system: IL-36-triggered psoriasis-like dermatitis; assay: IL-36α-mediated psoriasis-like dermatitis mouse model, topical treatment of ears; type: in vivo, C57BL/6 mice
Method: Western blot analysis was performed as described before. The following antibodies were used and purchased from Cell Signaling: anti-IκBζ (9244), anti-phospho-STAT3 at […] (9145), anti-phospho-STAT3 at […] (9134), anti-STAT3 (12640), anti-p65 (8242), anti-EZH2 (5246), anti-pRB (phospho-RB at […]/811; 8516), anti-FoxM1 (5436), anti-H3 (4499), anti-CDK4 (12790), anti-CDK6 (13331), anti-CDK9 (2316), anti-cyclin D1 (2978), anti-cyclin D2 (3741), anti-cyclin D3 (2936), anti-cJUN (9165), anti-H3K27me3 (9733), anti-GAPDH (2118), anti-H3 (9715) and anti-β-actin (3700). Anti-β-Gal (sc377257) and anti-GFP (sc9996) were obtained from Santa Cruz Biotechnology. Anti-pEZH2 at […] (61242) anti-pEZH2 at […] (12820) were purchased from Active Motif and anti-pan-methyl-lysine antibody was purchased from Enzo ([…]). For detection of mouse IκB, a self-made antibody raised against peptides […] NO:3) and […] NO:4) was applied. Gene expression analyses were performed as described. Relative gene expression was analyzed using self-designed primers ordered at Metabion (not shown). Relative mRNA levels were calculated by normalization to the human reference gene RPL37A or the mouse reference gene Actin using the 2-ΔΔCt method. Experiments were conducted in accordance with the German law guide-lines of animal care. Ears of female C57BL/6 mice (8-12 weeks old) were topically treated for 6 consecutive days with 5 mg Aldara cream (containing 5% imiquimod, 3M Pharmaceutical) and 0.02 mg of abemaciclib (in 10 μL ethanol), 0.05 mg CPI-169 (in 10 μL ethanol) or vehicle control. At day 7, mice were sacrificed and analysed. For IL-36α-mediated psoriasis induction, ears of male C57BL/6 mice (8-12 weeks old) were treated by intradermal injections using 1 μg murine IL-36α (aa 8-160, R&D) or PBS control for 5 consecutive days. For application of the vehicle control, abemaciclib (0.02 mg) or CPI-169 (0.05 mg), substances were mixed with Miglyol 812 (Carl Roth) in a ratio of 1:4. Inhibitors were topically applicated 6 h before intradermal injections of IL-36α or PBS were applied. Mice were sacrificed and analysed at day 6. […]

[2] = system: IMQ-induced, psoriasis-like skin inflammation; type: in vivo, C57BL/6 mice; conditions: for penetration of the skin: mouse, in vivo
Method: Western blot analysis was performed as described before. The following antibodies were used and purchased from Cell Signaling: anti-IκBζ (9244), anti-phospho-STAT3 at Tyr705 (9145), anti-phospho-STAT3 at Ser727 (9134), anti-STAT3 (12640), anti-p65 (8242), anti-EZH2 (5246), anti-pRB (phospho-RB at Ser807/811; 8516), anti-FoxM1 (5436), anti-H3 (4499), anti-CDK4 (12790), anti-CDK6 (13331), anti-CDK9 (2316), anti-cyclin D1 (2978), anti-cyclin D2 (3741), anti-cyclin D3 (2936), anti-cJUN (9165), anti-H3K27me3 (9733), anti-GAPDH (2118), anti-H3 (9715) and anti-β-actin (3700). Anti-β-Gal (sc377257) and anti-GFP (sc9996) were obtained from Santa Cruz Biotechnology. Anti-pEZH2 at T345 (61242) anti-pEZH2 at T487 (12820) were purchased from Active Motif and anti-pan-methyl-lysine antibody was purchased from Enzo (ADI-KAP-TF121-E). For detection of mouse IκB, a self-made antibody raised against peptides […] (SEQ ID NO:3) and […] (SEQ ID NO:4) was applied.
Gene expression analyses were performed as described. Relative gene expression was analyzed using self-designed primers ordered at Metabion (not shown). Relative mRNA levels were calculated by normalization to the human reference gene RPL37A or the mouse reference gene Actin using the 2-ΔΔCt method.
Experiments were conducted in accordance with the German law guide-lines of animal care. Ears of female C57BL/6 mice (8-12 weeks old) were topically treated for 6 consecutive days with 5 mg Aldara cream (containing 5% imiquimod, 3M Pharmaceutical) and 0.02 mg of abemaciclib (in 10 μL ethanol), 0.05 mg CPI-169 (in 10 μL ethanol) or vehicle control. At day 7, mice were sacrificed and analysed. For IL-36α-mediated psoriasis induction, ears of male C57BL/6 mice (8-12 weeks old) were treated by intradermal injections using 1 μg murine IL-36α (aa 8-160, R&D) or PBS control for 5 consecutive days. For application of the vehicle control, abemaciclib (0.02 mg) or CPI-169 (0.05 mg), substances were mixed with Miglyol 812 (Carl Roth) in a ratio of 1:4. Inhibitors were topically applicated 6 h before intradermal injections of IL-36α or PBS were applied. Mice were sacrificed and analysed at day 6.
Sample preparation was performed as described. The following anti-mouse antibodies from BioLegend were used: anti-CD45 FITC (103107), anti-CD11b PacificBlue (101223), anti-Ly6G PE (127607), anti-F4/80 APC (123115), anti-CD11c Pacific Blue (117322), anti-MHC-II APC (107613), anti-CD172a PE (144011) and anti-Silec-H PE (129605). Anti-PDCA-1 APC (17-2092-80) and anti-αβTCR PE (HM3628) were purchased from Invitrogen, and anti-γδ-TCR APC (17-5711-82) from Sigma. Data was acquired on a LSRII flow cytometer (Becton Dickson).
Ear sections from mice were fixed in 10% formalin (Carl Roth) and subsequently embedded in paraffin. 5-μm sections were prepared and incubated with the following antibodies from Cell Signaling: pSTAT3 (9145), pRB (8516) and H3K27me3 (9733). For staining of human skin samples, EZH2 antibody (Cell Signaling, 5246) was used. Antigen retrieval was performed in 1 mM EDTA pH 8.0 for pSTAT3, and 10 mM citrate buffer pH 6.0+0.5% Triton X-100 for EZH2, H3K27me3 and pRB. After incubation with peroxidase-coupled secondary antibodies, sections were stained with DAB substrate.

[3] = system: TH1 cytokines and tumor-infiltrating T cells; conditions: experimental cancer model, Deng et al.; cited from earlier work
[4] = flow cytometry of IMQ-treated mouse ears, day 7

Row | SMILES | IκBζ target gene expression and key cytokine expression (Il17a, Il23a) ([1]; IL-36α-treated skin, FIG. 12g) | keratinocyte hyperproliferation and immune cell infiltration ([1]; intradermal IL-36α 5 days, topical inhibitor, day 6) | IL-36-mediated expression of IκBζ, phosphorylation of EZH2 at T345 and activation of STAT3 (pSTAT3 Y705) ([1]; skin of treated mouse ears, day 6) | IκBζ expression in the skin, phosphorylation of EZH2 at T345 and of STAT3 at Y705 ([2]; IMQ-treated mouse skin, day 7) | expression of IκBζ target genes (Cxcl2, Cxcl5) and DC- and T-cell-derived cytokines (Il17a, Il23a) ([2]; IMQ-treated skin, day 7) | H3K27me3 expression in the epidermis (EZH2 inhibition) ([2]; ear skin sections of treated mice, FIG. 10c) | immune cell infiltration (neutrophils, macrophages and T cells) [2, 4] | number of infiltrating plasmacytoid (pDC) and myeloid dendritic cells (mDC) [2, 4] | penetration of the skin [2] | IMQ-induced, psoriasis-like skin inflammation (ear thickening, keratinocyte hyperproliferation, immune cell infiltration) ([2]; topical, daily 6 days, abemaciclib 0.02 mg, CPI-169 0.05 mg per ear) | levels of TH1 cytokines and tumor-infiltrating T cells [3]
1 | CCS(=O)(=O)N1CCC([C@@H](C)n2c(C)c(C(=O)NCc3c(OC)cc(C)[nH]c3=O)c3ccccc32)CC1 [CPI-169] | effectively blocked | effectively blocked | suppressed | completely abrogated | significantly downregulated | loss | fully abrogated | significantly suppressed | effectively penetrated the skin | completely suppressed | 
2 | CCN1CCN(Cc2ccc(Nc3ncc(F)c(-c4cc(F)c5nc(C)n(C(C)C)c5c4)n3)nc2)CC1 [abemaciclib] |  |  |  |  |  |  |  |  | effectively penetrated the skin |  | 
3 | CN1CCN(c2ccc(Nc3ncc4cc5n(c4n3)C3(CCCCC3)CNC5=O)nc2)CC1 [trilaciclib] |  |  |  |  |  |  |  |  |  |  | increased
